Where two headings read alike, the source gives them in different places.
How the values were obtained:
recombinant NcCDPK1 = recombinant NcCDPK1 (Neospora caninum, UniProt F0V9W9); assay: biochemical
Experimental: Protein kinase activity of recombinant NcCDPK1 and inhibition of its kinase phosphorylation properties by BKIs was measured in a non-radioactive assay using Kinase-Glo luciferase reagent (Promega, Madison, WI). This luminescence based assay measures kinase activity in the presence or absence of inhibitors by reporting changes in initial ATP concentration after NcCDPK1 phosphorylation of biotinylated Syntide-2 peptide substrate (Biotin-C6-[…]) (BioSyntide-2) (American Peptide Company, Inc. Sunnyvale, CA), [40]. […] The reaction was initiated by the addition of 10 μM ATP and incubated for 90 minutes at 30°C. Changes in initial ATP concentration was evaluated as a luminescence readout using a MicroBeta2 multi-label plate reader (Perkin Elmer, Waltham, MA).

T. gondii = settings: cited from earlier work
N. caninum tachyzoites = assay: N. caninum-β-gal tachyzoite proliferation in HFF, 3 days; type: cell-based; settings: Neospora caninum, read-out: EC50 N. caninum
Experimental: Transgenic N. caninum tachyzoites expressing beta-galactosidase under a constitutive promoter (N. caninum-β-gal) were grown in Vero cells and were separated from host cell components as previously described. Human foreskin fibroblasts (HFF) at 5×10^3 cells per well in phenol-red free culture medium were incubated at 37°C with 5% CO2 and were grown to confluence in a 96-well plate. […] Cultures were infected with N. caninum-β-gal tachyzoites (1×10^3 per well). After three days at 37°C/5% CO2, plates were centrifuged at 500 g, medium was removed, and cell cultures were lysed in PBS containing 0.05% Triton-X-100. After addition of 10 μL of 5 mM chlorophenol red-b-D-galactopyranoside (CPRG; Roche Diagnostics, Rotkreuz, Switzerland) dissolved in PBS, the absorption shift was measured at 570 nm wavelength at various time points on a VersaMax multiplate reader (Bucher Biotec, Basel, Switzerland). The activity, measured as the release of chlorophenol red over time, was proportional to the number of life parasites down to 50 per well as determined in pilot assays. EC50 values were calculated after the logit-log-transformation of relative growth and subsequent regression analysis by the corresponding software tool contained in the Excel software package (Microsoft, Seattle, WA).

[1] = cited from earlier work
N. caninum = N. caninum infected Balb/c mice, cerebral parasite load by real time PCR; type: in vivo
[2] = test system: N. caninum tachyzoites in HFF; assay: Host cell invasion assay, BKI treatment pre- and post-infection (β-galactosidase); type: cell-based, Neospora caninum
Experimental: Control wells with equal volume of DMSO were also included per reaction plate. Two hours after initiating the experiment, the cells were washed. Selected untreated assay plates were treated with 1294 for 60 minutes after the initial wash with medium. All the assay plates were incubated for one hour before a final wash and reading the beta-galactosidase activity.

Cryptosporidium parvum = test system: Cryptosporidium parvum; design: method as in PMID 23878324; settings: in vitro and in vivo; cited from earlier work
malaria transmission = test system: malaria transmission; design: method as in PMID 24123773; settings: cited from earlier work
[3] = concentration that inhibits protein kinase activity by 50%, 10 μM ATP, 40 μM BioSyntide-2, 3.3 nM enzyme, read-out: IC50 NcCDPK1
[4] = 72 h, concentration that inhibits cell growth by 50%, tachyzoites in HFF, 3 days

recombinant NcCDPK1, sequence (F0V9W9 entry or part of it): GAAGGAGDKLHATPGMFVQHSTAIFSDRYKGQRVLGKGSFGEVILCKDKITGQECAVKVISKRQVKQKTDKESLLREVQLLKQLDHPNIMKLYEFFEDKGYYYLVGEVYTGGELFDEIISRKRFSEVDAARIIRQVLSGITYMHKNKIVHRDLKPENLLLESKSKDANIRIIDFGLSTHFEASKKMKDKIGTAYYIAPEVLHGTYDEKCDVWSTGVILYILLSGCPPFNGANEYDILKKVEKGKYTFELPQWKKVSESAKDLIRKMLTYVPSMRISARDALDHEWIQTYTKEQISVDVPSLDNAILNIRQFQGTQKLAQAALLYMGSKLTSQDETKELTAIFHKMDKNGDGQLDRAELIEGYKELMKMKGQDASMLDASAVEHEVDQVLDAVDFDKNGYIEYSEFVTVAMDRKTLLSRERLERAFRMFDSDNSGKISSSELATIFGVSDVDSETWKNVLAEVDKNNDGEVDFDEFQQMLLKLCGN

For `CC(C)(C)n1nc(-c2ccc3ccccc3c2)c2c(N)ncnc21` [11b], the IC50 (recombinant NcCDPK1; [3]) is given as 1.7 nM, the EC50 (T. gondii) is given as 347 nM and the EC50 (N. caninum tachyzoites; [4]) is given as 140 nM.
For `CCOc1ccc2cc(-c3nn(CC4CCN(C)CC4)c4ncnc(N)c34)ccc2c1` [compound 1294], the IC50 (recombinant NcCDPK1) is listed as 2.6 nM, the EC50 (T. gondii) is listed as 137 nM and the EC50 (N. caninum tachyzoites; HFF-3, 72 h) is listed as 32 nM. For the same compound, the pharmacokinetic data [1] was “favorable absorption with low clearance”, the “toxicity in mammalian cells and rodents” value ([1]; in vivo) was “low toxicity” and the “cerebral parasite load vs placebo group” value (N. caninum; group B: 50 mg/kg oral daily from day 3 post infection for 5 days, P = 0.0139) was “tendency towards reduced parasite load”. The “cerebral parasite load vs placebo group” value (N. caninum; group C: 50 mg/kg oral daily from day 3 post infection for 10 days, P = 0.0047) was “clearly the most effective”, the “reduction of cerebral parasite burden compared to untreated control” value (N. caninum; oral 50 mg/kg for 5 days, established murine neosporosis) was 10 fold and the “beta-galactosidase activity (host cell invasion)” value (from here on “beta-galactosidase activity”) ([2]; 5 μM added after the infection phase of 2 hours, p>0.2) was “no difference”. The “beta-galactosidase activity” value ([2]; 5 μM added at 60, 90 and 115 minutes after initiation of infection) was “no significant difference”, the “beta-galactosidase activity” value ([2]; 5 μM added at initiation of HFF infection, 2 hours, vs 1266 or DMSO, p<0.001) was “significant decrease” and the “activity against Cryptosporidium parvum cell growth” value (Cryptosporidium parvum) was “profound in vitro and in vivo activity”. The malaria transmission blocking (malaria transmission) was “excellent malaria transmission blocking properties”.
For `CCOc1ccc2cc(-c3nn(C4CCN(CC)CC4)c4ncnc(N)c34)ccc2c1` [15i], the IC50 (recombinant NcCDPK1; [3]) is listed as 2.3 nM, the EC50 (T. gondii) is listed as 90 nM and the EC50 (N. caninum tachyzoites; [4]) is listed as 99 nM.
`CCOc1ccc2cc(-c3nn(CC4CCNCC4)c4ncnc(N)c34)ccc2n1` [16n] gave an IC50 (recombinant NcCDPK1; [3]) of 1.7 nM and an EC50 (N. caninum tachyzoites; [4]) of 49 nM.
For `CCOc1ccc2cc(-c3nn(C4CCN(C)CC4)c4ncnc(N)c34)ccc2c1` [15h], the IC50 (recombinant NcCDPK1; [3]) is listed as 1.4 nM, the EC50 (T. gondii) is listed as 50 nM and the EC50 (N. caninum tachyzoites; [4]) is listed as 55 nM.
Compound `CCOc1ccc2cc(-c3nn(CC4CCOCC4)c4ncnc(N)c34)ccc2n1` [compound 1412] has an IC50 (recombinant NcCDPK1; [3]) of 2 nM and an EC50 (N. caninum tachyzoites; [4]) of 119 nM.
In the case of `CCOc1ccc2cc(-c3nn(CC4CCNCC4)c4ncnc(N)c34)ccc2c1` [15n], the EC50 (T. gondii) is listed as 52 nM and the EC50 (N. caninum tachyzoites; [4]) is listed as 50 nM.
